Results on 10 compounds are retold here after US5902810A, “Pteridine derivatives as no synthase inhibitors” (Hoechst Aktiengesellschaft, priority 1994, dated 1999).

The target in one assay is T1, purified NO synthase from pig cerebellum (Sus scrofa, UniProt F1RKF2).
T1 construct: purified NO synthase from pig cerebellum; from tissue; host or cells: pig cerebellum
Description: Inhibition of the activity of purified nitric oxide synthase (NOS), 3H-L-citrulline formation, enzyme from pig cerebellum. Format: biochemical. The following applies: 0.25 h, substance 100 μM, antagonistic test in the presence of 2 μM tetrahydrobiopterin, 37° C., 15 minutes, read-out: Citrulline formation (% of the control).
Description: In this assay for purified NO synthase (NOS) the coproduct L-citrulline obtained during NO formation is determined quantitatively. This is carried out by the use of ^3 H-radiolabeled L-arginine as a substrate of the enzyme reaction, which is reacted to give ^3 H-L-citrulline and NO. After the enzyme incubation is complete, resulting L-citrulline is removed from unused L-arginine by means of ion-exchange chromatography of the reaction mixture; the ^3 H-activity determined by liquid scintillation measurement then corresponds to the amount of L-citrulline.
The coproduct L-citrulline obtained during the formation of NO by purified NOS is determined quantitatively in this activity assay. The substrate of the enzyme reaction employed is ^3 H-radiolabeled L-arginine, which is reacted to give ^3 H-L-citrulline and NO. After the enzyme incubation is complete, resulting L-citrulline is removed from unused L-arginine by means of ion-exchange chromatography of the reaction mixture; the ^3 H activity measured by liquid scintillation then corresponds to the amount of L-citrulline, which is a direct measure of the activity of NOS.
The base medium for carrying out the enzyme reaction is TE buffer (triethanolamine, EDTA, pH 7.0). The final volume of each incubation is 100 μl. The reaction mixture is obtained by mixing the following 6 components on ice:
"REA mix" (pH 7.0), which contains triethanolamine, calcium chloride, magnesium chloride, EDTA, L-arginine, calmodulin and flavine adenine dinucleotide (FAD);
2. freshly prepared stock solution of β-nicotinamide adenine dinucleotide phosphate, reduced form (NADPH); […]
Triethanolamine 50 mM, EDTA 0.5 mM, CaCl2 226 μM, MgCl2 477 μM, L-arginine 50 μM, calmodulin 0.5 μM, FAD 5 μM, NADPH 1 mM, BH4 (if added) 2 μM, substance to be tested 100 μM. […] 9 ml of scintillator solution are added to the 3 ml aqueous measuring solution and the homogeneous mixture is measured for 1 minute per sample in a Tricarb 2500 TR (Packard) liquid scintillation counter. […]
Regarding `CC(NC(=O)OCc1ccccc1)C(=O)OCc1cnc2nc(N)[nH]c(=O)c2n1` (stereo not shown) [Example 21], the remaining activity at 100 µM was 60.8%.
Still for that read-out and setting: next, `Nc1nc2ncc(COC(=O)C(Cc3ccccc3)NC(=O)OCc3ccccc3)nc2c(=O)[nH]1` (stereo not shown) [Example 23]: 2.5%; `CSCc1cnc2nc(N)[nH]c(=O)c2n1` [Example 37]: 22.9%.

A further assay deals with purified NO synthase from pig liver. Description: Inhibition of the activity of purified nitric oxide synthase (NOS), 3H-L-citrulline formation, enzyme from pig liver. The format is biochemical. The following applies: substance 100 μM, antagonistic test in the presence of 2 μM tetrahydrobiopterin, 37° C., 15 minutes. The source says:
The inhibition of NO release by the compounds of the formula I can be determined by an activity assay based on the studies of Bredt and Snyder and also Schmidt et al. (see D. S. Bredt and S. S. Snyder, Isolation of nitric oxide synthase, a calmodulin-requiring enzyme, Proc. Natl. Acad. Sci. USA 87 (1990), 682; H. H. H. W. Schmidt et al., Purification of a soluble isoform of guanylyl cyclase-activating factor synthase, Proc. Natl. Acad. Sci. USA 88 (1991), 365). In this assay for purified NO synthase (NOS) the coproduct L-citrulline obtained during NO formation is determined quantitatively. […] After the enzyme incubation is complete, resulting L-citrulline is removed from unused L-arginine by means of ion-exchange chromatography of the reaction mixture; the ^3 H-activity determined by liquid scintillation measurement then corresponds to the amount of L-citrulline. […]
The coproduct L-citrulline obtained during the formation of NO by purified NOS is determined quantitatively in this activity assay. […] After the enzyme incubation is complete, resulting L-citrulline is removed from unused L-arginine by means of ion-exchange chromatography of the reaction mixture; the ^3 H activity measured by liquid scintillation then corresponds to the amount of L-citrulline, which is a direct measure of the activity of NOS. […]
Regarding `N=c1[nH]c(N)nc2ncc(CN)nc12` [Example 76], the “Citrulline formation (% of the control)” value is reported as 22.4 % of the control.

Another assay deals with NO synthase.
Test: not given
The following applies: literature reports (Kwon et al.; Giovanelli et al.; Hevel and Marletta); cited from earlier work.
Turning to `C[C@H](O)[C@H](O)[C@H]1CNc2nc(N)[nH]c(=O)c2N1` [tetrahydrobiopterin], the “Effect on NO production / NO synthase activity” value is recorded as “stimulates NO production”.
With `CC1CNc2nc(N)[nH]c(=O)c2N1` (stereo not shown) [6-methyl-5,6,7,8-tetrahydropterin], the “Effect on NO production / NO synthase activity” value is recorded as “increase in NO synthase activity”.
On to `Nc1nc2ncc(CNc3ccc(C(=O)N[C@@H](CCC(=O)O)C(=O)O)cc3)nc2c(=O)[nH]1` [folic acid], for which the “Effect on NO production / NO synthase activity” value is recorded as “no significant effects”.
Consider `Nc1nc2nccnc2c(=O)[nH]1` [pterin], for which the “Effect on NO production / NO synthase activity” value is “no significant effects”.
Regarding `C[C@H](O)[C@H](O)c1cnc2nc(N)[nH]c(=O)c2n1` [biopterin], the “Effect on NO production / NO synthase activity” value is on record as “no significant effects”.
`C[C@H](O)[C@H](O)C1=Nc2c(nc(N)[nH]c2=O)NC1` [7,8-dihydrobiopterin]: the “Effect on NO production / NO synthase activity” value is “Stimulation of NO production”.
